“Also recorded” adds a separate entry of the source.

This is an account of results in patent US20190365762A1, “MEDICINAL COMPOSITION INHIBITING NEOVASCULARIZATION PROLIFERATION FACTOR” (KYOTO UNIVERSITY, priority 2014, published 2019).

The conditions of data set [1]: see WO 2005/063293; cited from earlier work.
The next data set has as its system SRPK (kinase). To be noted: see WO 2005/063293; cited from earlier work.
Data set [2] has as its system retinal neovascularization. To be noted: Nowak D G, Bates D O et al., J. Bio. Chem. 2010; cited from earlier work.
The test system of data set [3] is model mice with choroidal neovascularization (CNV). Description: CNV formation in CNV model mice, ophthalmic ointment (Experiment 4). The class given is in vivo. As to conditions: ophthalmic ointment with 10 g compound 2 per 100 g, 7 μL three times a day, versus base material only, FIG. 4. Here is the method:
[Experiment 4: Preparation of Ophthalmic Ointment and Evaluation of Effect of Inhibiting CNV Formation by Using the Ophthalmic Ointment]
An ophthalmic ointment with the following composition was prepared.
60 g of liquid paraffin; and
30 g of white petrolatum.
An experiment was performed in the same manner as Experiment 2 except that the ophthalmic ointment was applied in a dose of 7 μL three times a day, instead of the intravitreal injection, and the CNV inhibition was evaluated. Moreover, an ophthalmic ointment containing only a base material was used as a control, and the same experiment was performed. FIG. 4 illustrates the results. A of FIG. 4 is a graph that indicates the area of CNV.

Data set [4] has the same test system. Description: CNV formation in laser-induced CNV model mice, intravitreal injection (Experiments 2 and 3). It counts as in vivo. To be noted: for CNV formation (area of CNV): 20 pmol intraocularly injected immediately after laser irradiation, 7 days, C57B/6J mice, FIG. 2. As for the experimental part:
[Experiment 2: Evaluation of Effect of Inhibiting CNV Formation by Compounds 1 to 3]
The synthesized compounds 1 to 3 and the above reference compound were administered to model mice with choroidal neovascularization (CNV) by intravitreal injection, and the CNV inhibition was evaluated. The details of the experiment are as follows. FIG. 2 illustrates the results.
100 mg/kg of ketamine and 10 mg/kg of xylazine were intraperitoneally injected into 6- to 8-week-old C57B/6J mice (Japan SLC, Inc.), and the mice were placed under anesthesia. Then, eyedrops (SANDOL P) containing tropicamide (5 mg/ml) and phenylephrine (5 mg/ml) were used to dilate the pupil. Any four points of the fundus were irradiated with a 532 nm argon laser (100 mW, 0.1 s, 75 μm) to form new blood vessels. The compound (20 pmol) was intraocularly injected immediately after the laser irradiation, and an ofloxacin (Tarivid) ophthalmic ointment was applied to the corneal surface to prevent infection and drying.
100 mg/kg of ketamine and 10 mg/kg of xylazine were intraperitoneally injected into the mice after 7 days had passed from the laser irradiation, and the mice were placed under anesthesia. Then, the mice underwent thoracotomy and were perfused with FITC-dextran (50 mg/ml; Life Technologies Japan Ltd.) through the left ventricle. After the perfusion, the eyes were enucleated and fixed in 4% paraformaldehyde. After the fixation, the corneas, crystalline lenses, and retinas were removed, and the flat mount of the choroid was obtained. CNV was imaged with a fluorescence microscope (BZ-9000; Keyence Corporation) so that the area of the CNV was measured.
An experiment was performed in the same manner as Experiment 2 by administering the compound 2 at different concentrations (0.2 µM, 2 µM, 20 µM), and the CNV inhibition was evaluated. FIG. 3 illustrates the results.

Data set [5] relates to vascular endothelial growth factor (VEGF). The data set can be described thus: VEGF protein in culture medium of ARPE-19 cells by ELISA (Experiment 1). The class given is cell-based, human. To be noted: compound 10 μM, TGF-β 1 nM, 72 hours, FIG. 1. Here is the method: [Experiment 1: Evaluation of Effect of Inhibiting VEGF Expression by Compounds 1 to 3]
The synthesized compounds 1 to 3 and the following reference compound were administered to human retinal pigment epithelial cells (ARPE-19 cell line). After 3 days of cultivation, each culture medium was subjected to ELISA to determine a vascular endothelial growth factor (VEGF). The details of the experiment are as follows. FIG. 1 illustrates the results.
A retinal pigment epithelial cell line, i.e., ARPE-19 was used. The ARPE-19 was cultured in Ham's F-12/DMEM medium containing 10% fetal bovine serum and 1% penicillin-streptomycin solution. The cells were seeded on a 24 well plate at 1.0×10^4 cell/well. On the next day, the culture medium was replaced with 1% fetal bovine serum. Further, the culture medium was removed 24 hours later and replaced with a culture medium (containing 1% fetal bovine serum) to which the compound (10 μM) and TGF-β (1 nM) were added. The culture medium was replaced every 24 hours in the same manner. Then, the culture medium was collected after 72 hours had passed from the administration of the compound. An ELISA kit (manufactured by R&D Systems, Inc.) was used to measure the amount of VEGF protein in the culture medium. The absorbance was measured by an ARVO X5 multiplate reader.
In general terms: In an ELISA, binding on a coated surface is turned into a signal by an enzyme label.

`O=C(Nc1cc(C(F)(F)F)ccc1N1CCCCC1)c1ccncc1` [reference compound]: the antiviral activity entry in data set [1] is reported as “has antiviral activity”. In addition, the “SRPK (kinase) inhibition” value with SRPK (kinase) was “inhibits SRPK”. The retinal neovascularization result in data set [2] is “suppress retinal neovascularization”.

As for `COc1cc(/C=C2\C(=N)N3N=C(C(F)(F)F)SC3=NC2=O)ccc1O` [compound 2, 6-(4-hydroxy-3-methoxybenzylidene)-5-imino-2-(trifluoromethyl)-5,6-dihydro-7H-[1,3,4]thiadiazolo[3,2-a]pyrimidin-7-one], the melting point (usually the temperature, or range, at which the solid turns liquid) lay within 224 to 225 °C. Besides, the “CNV formation (area of CNV)” value in data set [3] was “reduced the CNV formation”. The “CNV formation (area of CNV)” value in data set [4] is listed as “significant; also recorded: more prominent”. For the same compound, the “concentration dependence of reduction of CNV formation” value in data set [4] (intravitreal injection, FIG. 3) was “reduced the CNV formation in a concentration-dependent manner”. Besides, the “amount of VEGF protein in the culture medium” value in data set [5] is reported as “particularly significant”.

Take `COc1cc(/C=C2/C(=O)NN(c3ccc(Cl)c(Cl)c3)C2=O)ccc1O` [compound 1, 1-(3,4-dichlorophenyl)-4-(4-hydroxy-3-methoxybenzylidene)pyrazolidine-3,5-dione]: the melting point is 260 °C (dec.). Besides, the “CNV formation (area of CNV)” value in data set [4] was “significant”.
